Reference: the supplement of paper PMC10307832

Tests used:
Test in all cases: relative viability (nuclei count vs DMSO), 5 days (fraction); higher = more cells survive
[1] = compound: CC1=C(N=C(N=C1N)[C@H](CC(=O)N)NC[C@@H](C(=O)N)N)C(=O)N[C@@H]([C@H](C2=CN=CN2)OC3C(C(C(C(O3)CO)O)O)OC4C(C(C(C(O4)CO)O)OC(=O)N)O)C(=O)N[C@H](C)[C@H]([C@H](C)C(=O)N[C@@H]([C@@H](C)O)C(=O)NCCC5=NC(=CS5)C6=NC(=CS6)C(=O)NCCC[S+](C)C)O [Bleomycin] + Cc1cc(Nc2cc(N3CCN(C)CC3)nc(Sc3ccc(NC(=O)C4CC4)cc3)n2)n[nH]1 [Tozasertib] (partner 0.1 µM); details: main component drawn
Procedure, shortened: (§1)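 Relative viability was taken as the ratio of nuclei in treated wells to nuclei in vehicle wells. Lung cancer cell lines in 1536-well plates received compounds by pin tool one day after seeding, either one drug alone or a fixed anchor-drug dose plus five library-drug doses (not always all listed) in √10 steps. Nuclei were counted on 4× images after 5 days of treatment, and values are medians of duplicate plates.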

[2] = compound: CC1=C(N=C(N=C1N)[C@H](CC(=O)N)NC[C@@H](C(=O)N)N)C(=O)N[C@@H]([C@H](C2=CN=CN2)OC3C(C(C(C(O3)CO)O)O)OC4C(C(C(C(O4)CO)O)OC(=O)N)O)C(=O)N[C@H](C)[C@H]([C@H](C)C(=O)N[C@@H]([C@@H](C)O)C(=O)NCCC5=NC(=CS5)C6=NC(=CS6)C(=O)NCCC[S+](C)C)O [Bleomycin] + N=C(N)NC(=N)NCCc1ccccc1 [Phenformin] (partner 250 µM); details: main component drawn
Procedure, shortened: as §1

[3] = compound: COc1cc([C@@H]2c3cc4c(cc3[C@@H](O[C@@H]3O[C@@H]5CO[C@@H](C)O[C@H]5[C@H](O)[C@H]3O)[C@H]3COC(=O)[C@H]23)OCO4)cc(OC)c1O [Etoposide] + CC(C)C[C@H](NC(=O)[C@H](Cc1ccccc1)NC(=O)c1cnccn1)B(O)O [Bortezomib] (partner 0.002 µM)
Procedure, shortened: as §1

[4] = compound: COc1cc([C@@H]2c3cc4c(cc3[C@@H](O[C@@H]3O[C@@H]5CO[C@@H](C)O[C@H]5[C@H](O)[C@H]3O)[C@H]3COC(=O)[C@H]23)OCO4)cc(OC)c1O [Etoposide] + CS(=O)(=O)CCNCc1ccc(-c2ccc3ncnc(Nc4ccc(OCc5cccc(F)c5)c(Cl)c4)c3c2)o1 [Lapatinib] (partner 2 µM)
Procedure, shortened: as §1

Cell Line | relative viability ([1]; first compound 0.01 µM) | relative viability ([1]; first compound 0.03162 µM) | relative viability ([1]; first compound 0.1 µM) | relative viability ([1]; first compound 0.3162 µM) | relative viability ([1]; first compound 1 µM) | relative viability ([2]; first compound 0.01 µM) | relative viability ([2]; first compound 0.03162 µM) | relative viability ([2]; first compound 0.1 µM) | relative viability ([2]; first compound 0.3162 µM) | relative viability ([2]; first compound 1 µM) | relative viability ([3]; first compound 0.01 µM) | relative viability ([3]; first compound 0.03162 µM) | relative viability ([3]; first compound 0.1 µM) | relative viability ([3]; first compound 0.3162 µM) | relative viability ([3]; first compound 1 µM) | relative viability ([4]; first compound 0.01 µM) | relative viability ([4]; first compound 0.03162 µM) | relative viability ([4]; first compound 0.1 µM) | relative viability ([4]; first compound 0.3162 µM) | relative viability ([4]; first compound 1 µM)
NCI-H520 | 0.412 | 0.422 | 0.486 | 0.33 | 0.358 | 0.315 | 0.577 | 0.4 | 0.279 | 0.35 | 0.484 | 0.634 | 0.379 | 0.576 | 0.561 | 0.839 | 0.829 | 0.563 | 0.72 | 0.437
NCI-H596 | 0.639 | 0.583 | 0.468 | 0.354 | 0.253 | 0.673 | 0.728 | 0.635 | 0.343 | 0.366 | 0.798 | 1.1 | – | 0.968 | 0.977 | 0.94 | 1.03 | – | 1.08 | 0.625
NCI-H647 | 0.0723 | 0.103 | 0.0701 | 0.0484 | 0.0467 | 0.209 | 0.207 | 0.148 | 0.078 | 0.0537 | 0.807 | 1.4 | 0.72 | 0.298 | 0.147 | 1.05 | 0.984 | 0.797 | 0.185 | 0.0906
NCI-H650 | 0.584 | 0.627 | 0.57 | 0.231 | 0.188 | 0.342 | 0.399 | 0.384 | 0.327 | 0.202 | 0.683 | 0.836 | 0.63 | 0.417 | 0.222 | 0.657 | 0.951 | 0.409 | 0.418 | 0.207
NCI-H661 | 0.366 | 0.359 | 0.36 | 0.374 | 0.35 | 0.272 | 0.239 | 0.232 | 0.216 | 0.215 | 0.735 | 0.828 | 0.531 | 0.543 | 0.276 | 0.44 | 0.416 | 0.314 | 0.283 | 0.235
NCI-H727 | 0.761 | 0.578 | 0.732 | – | 0.596 | 0.65 | 0.621 | 0.469 | – | 0.502 | 0.764 | 1.07 | 0.536 | 0.857 | 0.659 | 0.844 | 0.937 | 0.511 | 0.665 | 0.589
NCI-H838 | 0.238 | 0.211 | 0.178 | 0.15 | 0.139 | 0.381 | 0.297 | 0.185 | 0.188 | 0.153 | 0.641 | 0.978 | 0.659 | 0.624 | 0.333 | 0.996 | 1.02 | 0.617 | 0.478 | 0.171
NCI-H1355 | 0.511 | 0.596 | 0.478 | 0.255 | 0.224 | 0.432 | 0.487 | 0.429 | 0.27 | 0.194 | 1.15 | 1.35 | 0.671 | 1.13 | 0.412 | 1.09 | 1.03 | 0.472 | 0.775 | 0.248
NCI-H1437 | 0.369 | 0.404 | 0.369 | 0.309 | 0.324 | 0.248 | 0.283 | 0.287 | 0.229 | 0.212 | 0.378 | 0.547 | 0.492 | 0.243 | 0.273 | 0.754 | 0.837 | 0.577 | 0.398 | 0.186
NCI-H1650 | 0.307 | 0.234 | 0.213 | 0.189 | 0.178 | 0.293 | 0.239 | 0.206 | 0.114 | 0.149 | 0.201 | 0.204 | 0.208 | 0.181 | 0.185 | 0.696 | 0.781 | 0.479 | 0.217 | 0.144
NCI-H1651 | 0.529 | 0.455 | 0.303 | 0.156 | 0.105 | 0.314 | 0.298 | 0.303 | 0.17 | 0.189 | 0.914 | 0.979 | 0.875 | 0.532 | 0.181 | 0.753 | 0.774 | 0.614 | 0.199 | 0.121
NCI-H1666 | 0.4 | 0.462 | 0.458 | 0.391 | 0.344 | 0.528 | 0.516 | 0.494 | 0.344 | 0.302 | 0.949 | 0.71 | 0.528 | 0.294 | 0.242 | 0.616 | 0.692 | 0.371 | 0.305 | 0.28
NCI-H1734 | 0.222 | 0.223 | 0.279 | 0.199 | 0.15 | 0.327 | 0.28 | 0.28 | 0.177 | 0.131 | 0.894 | 0.878 | 0.572 | 0.624 | 0.308 | 0.971 | 1.05 | 0.612 | 0.515 | 0.273
NCI-H1755 | 0.54 | 0.54 | 0.636 | 0.468 | 0.333 | 0.562 | 0.589 | 0.593 | 0.507 | 0.39 | 0.995 | 1.02 | 0.887 | 0.9 | 0.969 | 1.06 | 1.13 | 1.02 | 0.988 | 0.71
NCI-H1915 | 0.317 | 0.347 | 0.229 | 0.162 | 0.133 | 0.301 | 0.301 | 0.254 | 0.15 | 0.14 | 0.963 | 0.969 | 0.992 | 0.906 | 0.516 | 0.907 | 1.03 | 0.913 | 0.749 | 0.524
